Measured values as given in patent US20070117770A1, “Human ribosomal DNA (rDNA) and ribosomal RNA (rRNA) nucleic acids and uses thereof” (Cylene Pharmaceuticals, Inc., priority 2005, published 2007).

Tests used:
Test in all cases: Protein kinase inhibition assay
CK1(y) = type: biochemical, yeast; conditions: 2.5 μM
Protocol: (§1) Certain compounds were tested for activity in protein kinase inhibition assays. All substrates were dissolved and diluted to working stocks in de-ionized water, apart from histone H1 (10× working stock in 20 mM MOPS pH 7.0), PDKtide (10× working stock in 50 mM Tris pH 7.0) ATF2 (which is typically stored at a 20× working stock in 50 mM Tris pH 7.5, 150 mM NaCl, 0.1 mM EGTA, 0.03% Brij-35, 50% glycerol, 1 mM benzamidine, 0.2 mM PMSF and 0.1% R-mercaptoethanol), KKLNRTLSFAEPG (SEQ ID NO:203) and RRRLSFAEPG (SEQ ID NO:204) (50 mM HEPES pH 7.4) and GGEEEEYFELVKKKK (SEQ ID NO:205) (20 mM MOPS pH 7.0). All kinases were pre-diluted to a 10× working concentration prior to addition into the assay. The composition of the dilution buffer for each kinase is detailed below.
(§2) In a final reaction volume of 25 μl, CK1 (y) (5-10 mU) is incubated with 8 mM MOPS pH 7.0, 0.2 mM EDTA, 200 μM KRRRALS(p)VASLPGL (SEQ ID NO:214), 10 mM MgAcetate and [gamma-33P-ATP] (specific activity approx. 500 cpm/pmol, concentration as required). The reaction is initiated by the addition of the MgATP mix. After incubation for 40 minutes at room temperature, the reaction is stopped by the addition of 5 μL of a 3% phosphoric acid solution. 10 μl of the reaction is then spotted onto a P30 filtermat and washed three times for 5 minutes in 75 mM phosphoric acid and once in methanol prior to drying and scintillation counting.

FGFR4(h) = FGFR4(h) (Homo sapiens, UniProt P22455); type: biochemical; conditions: read-out: percent residual activity of FGFR4(h)
Chain of FGFR4(h) (P22455 22-802): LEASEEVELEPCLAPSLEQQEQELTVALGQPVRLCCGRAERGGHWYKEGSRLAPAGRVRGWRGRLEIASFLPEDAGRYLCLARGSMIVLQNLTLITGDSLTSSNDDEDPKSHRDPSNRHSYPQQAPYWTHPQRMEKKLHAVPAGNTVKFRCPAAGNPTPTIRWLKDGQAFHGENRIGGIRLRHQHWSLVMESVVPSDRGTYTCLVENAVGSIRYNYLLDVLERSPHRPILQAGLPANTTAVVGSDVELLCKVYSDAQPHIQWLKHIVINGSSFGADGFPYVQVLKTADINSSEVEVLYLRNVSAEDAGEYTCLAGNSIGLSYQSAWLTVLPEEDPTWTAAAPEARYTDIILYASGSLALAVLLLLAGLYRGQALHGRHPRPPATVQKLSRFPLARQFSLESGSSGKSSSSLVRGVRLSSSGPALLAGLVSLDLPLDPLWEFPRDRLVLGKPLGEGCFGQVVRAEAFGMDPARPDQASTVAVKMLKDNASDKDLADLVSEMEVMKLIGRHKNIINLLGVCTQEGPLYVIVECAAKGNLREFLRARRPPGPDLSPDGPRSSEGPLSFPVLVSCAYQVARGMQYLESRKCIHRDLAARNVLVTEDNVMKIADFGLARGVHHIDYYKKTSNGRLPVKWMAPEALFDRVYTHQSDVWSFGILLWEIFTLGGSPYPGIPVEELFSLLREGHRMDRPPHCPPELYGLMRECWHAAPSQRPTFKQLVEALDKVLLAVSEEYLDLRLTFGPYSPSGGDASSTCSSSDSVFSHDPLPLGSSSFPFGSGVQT
Protocol: as §1
as §2, with “FGFR4 (h)” for “CK1 (y)”, “10 mM MnCl2, 0.1 mg/ml poly(Glu, Tyr) 4:1,” for “200 μM KRRRALS(p)VASLPGL (SEQ ID NO:214),”, “μl” for “μL”, “Filtermat A” for “P30 filtermat”

SGK(h) = SGK(h) (Homo sapiens, UniProt O00141); type: biochemical; conditions: read-out: percent residual activity of SGK(h)
Chain of SGK(h) (O00141 whole entry): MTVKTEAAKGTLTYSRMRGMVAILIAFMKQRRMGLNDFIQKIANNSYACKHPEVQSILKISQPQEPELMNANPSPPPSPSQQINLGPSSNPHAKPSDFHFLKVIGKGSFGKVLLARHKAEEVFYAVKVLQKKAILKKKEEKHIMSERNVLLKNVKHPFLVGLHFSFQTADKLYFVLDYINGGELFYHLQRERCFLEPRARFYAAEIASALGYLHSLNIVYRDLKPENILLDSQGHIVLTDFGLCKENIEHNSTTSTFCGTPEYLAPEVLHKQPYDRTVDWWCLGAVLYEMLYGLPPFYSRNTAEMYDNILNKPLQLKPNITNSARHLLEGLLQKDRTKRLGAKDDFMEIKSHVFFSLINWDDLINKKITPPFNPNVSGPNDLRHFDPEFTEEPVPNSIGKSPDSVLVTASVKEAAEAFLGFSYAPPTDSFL
Protocol: as §1
as §2, with “SGK (h)” for “CK1 (y)”, “30” for “200”, “GRPRTSSFAEGKK” for “KRRRALS(p)VASLPGL”, “NO:226),” for “NO:214),”, “μl” for “μL”

PKCη(h) = PKCη(h) (Homo sapiens, UniProt P24723); type: biochemical; conditions: read-out: percent residual activity of PKCη(h)
Chain of PKCη(h) (P24723 whole entry): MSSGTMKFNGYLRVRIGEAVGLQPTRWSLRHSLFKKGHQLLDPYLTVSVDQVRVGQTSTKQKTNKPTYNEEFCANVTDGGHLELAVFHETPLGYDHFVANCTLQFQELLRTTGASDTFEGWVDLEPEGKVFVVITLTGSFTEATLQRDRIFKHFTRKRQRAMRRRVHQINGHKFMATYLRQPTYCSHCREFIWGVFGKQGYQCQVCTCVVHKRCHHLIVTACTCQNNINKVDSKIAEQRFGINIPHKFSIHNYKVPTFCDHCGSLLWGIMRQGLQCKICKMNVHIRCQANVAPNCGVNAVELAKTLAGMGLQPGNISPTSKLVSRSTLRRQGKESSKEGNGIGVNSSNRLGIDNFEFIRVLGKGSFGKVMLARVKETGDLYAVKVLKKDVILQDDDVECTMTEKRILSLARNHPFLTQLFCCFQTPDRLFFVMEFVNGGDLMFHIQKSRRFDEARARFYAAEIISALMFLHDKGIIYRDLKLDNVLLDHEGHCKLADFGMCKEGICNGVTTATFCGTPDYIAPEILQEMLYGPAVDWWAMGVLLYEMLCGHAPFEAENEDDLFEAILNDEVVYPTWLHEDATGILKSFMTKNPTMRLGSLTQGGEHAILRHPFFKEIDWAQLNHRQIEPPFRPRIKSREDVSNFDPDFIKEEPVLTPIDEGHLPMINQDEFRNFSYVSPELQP
Protocol: as §1
In a final reaction volume of 25 μl, PKCη (h) (5-10 mU) is incubated with 20 mM HEPES pH 7.4, 0.03% Triton X-100, 0.1 mM CaCl2, 0.1 mg/ml phosphatidylserine, 10 μg/ml diacylglycerol, 50 μM ERMRPRKRQGSVRRRV (SEQ ID NO:234), 10 mM MgAcetate and [gamma-33P-ATP] (specific activity approx. 500 cpm/pmol, concentration as required). The reaction is initiated by the addition of the MgATP mix. After incubation for 40 minutes at room temperature, the reaction is stopped by the addition of 5 μl of a 3% phosphoric acid solution. […]

Yes(h) = Yes(h) (Homo sapiens, UniProt P07947); type: biochemical; conditions: read-out: percent residual activity of Yes(h)
Chain of Yes(h) (P07947 whole entry): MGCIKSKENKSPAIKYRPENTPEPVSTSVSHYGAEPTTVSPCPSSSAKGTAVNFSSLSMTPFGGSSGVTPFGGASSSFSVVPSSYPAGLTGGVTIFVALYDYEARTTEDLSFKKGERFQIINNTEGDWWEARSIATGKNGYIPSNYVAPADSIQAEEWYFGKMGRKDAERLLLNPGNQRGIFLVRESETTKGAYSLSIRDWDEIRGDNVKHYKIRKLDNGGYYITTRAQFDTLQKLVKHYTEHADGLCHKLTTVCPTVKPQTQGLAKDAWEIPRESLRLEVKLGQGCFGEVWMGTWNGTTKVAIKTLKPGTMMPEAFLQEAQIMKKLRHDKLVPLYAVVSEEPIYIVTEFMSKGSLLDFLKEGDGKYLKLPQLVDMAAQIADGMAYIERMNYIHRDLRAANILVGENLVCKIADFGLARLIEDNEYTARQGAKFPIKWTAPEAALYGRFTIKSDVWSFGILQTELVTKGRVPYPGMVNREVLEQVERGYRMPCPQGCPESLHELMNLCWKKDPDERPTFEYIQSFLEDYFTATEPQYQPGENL
Protocol: as §1
as §2, with “Yes (h)” for “CK1 (y)”, “0.1 mg/ml poly(Glu, Tyr) 4:1,” for “200 μM KRRRALS(p)VASLPGL (SEQ ID NO:214),”, “μl” for “μL”, “Filtermat A” for “P30 filtermat”

CDK2/cyclinA(h) = CDK2/cyclinA(h) (Homo sapiens, UniProt P24941); type: biochemical; conditions: read-out: percent residual activity of CDK2/cyclinA(h)
Protocol: as §1
as §2, with “CDK2/cyclinA (h)” for “CK1 (y)”, “0.1 mg/ml histone H1,” for “200 μM KRRRALS(p)VASLPGL (SEQ ID NO:214),”, “μl” for “μL”

## CN1CCCC1CCNC(=O)c1cn2c3c(c(N4CCC(c5cnccn5)C4)c(F)cc3c1=O)Oc1cc3ccccc3cc1-2 (stereo not drawn) [Compound A-1]
CK1(y)
  percent residual activity of CK1(y): 78%
FGFR4(h)
  remaining activity at 2.5 µM: 112%
SGK(h)
  remaining activity at 2.5 µM: 50%
PKCη(h)
  remaining activity at 2.5 µM: 80%
Yes(h)
  remaining activity at 2.5 µM: 81%
CDK2/cyclinA(h)
  remaining activity at 2.5 µM: 86%

## CC(=O)N1CCN(c2ccc3c(=O)c(C(=O)NCCN4CCCC4)c4n(C)c5ccccc5n4c3n2)CC1 [Compound B-1]
CK1(y)
  percent residual activity of CK1(y): 77%
FGFR4(h)
  remaining activity at 2.5 µM: 104%
SGK(h)
  remaining activity at 2.5 µM: 103%
PKCη(h)
  remaining activity at 2.5 µM: 80%
Yes(h)
  remaining activity at 2.5 µM: 96%
CDK2/cyclinA(h)
  remaining activity at 2.5 µM: 94%
